Experimental data from patent publication US20210300940A1 (Merck Patent GmbH, priority 2018, published 2021).
pIC50: −log10 of the molar value.

How the values were obtained:
TLR7 = target: T1, TLR7 (Homo sapiens, UniProt Q9NYK1); experiment: HEK/293 TLR7 Cell Assay; format: cell-based; conditions: TLR7/NFKb HEK cells, R848 agonist 10 uM final concentration, Steady-Glo readout; read-out: TLR7 potency
T1 construct: expressed in transfected cells; host or cells: HEK/293 cells carrying TLR7 and an NF-kB luciferase reporter
T1 sequence (Q9NYK1 27-1049): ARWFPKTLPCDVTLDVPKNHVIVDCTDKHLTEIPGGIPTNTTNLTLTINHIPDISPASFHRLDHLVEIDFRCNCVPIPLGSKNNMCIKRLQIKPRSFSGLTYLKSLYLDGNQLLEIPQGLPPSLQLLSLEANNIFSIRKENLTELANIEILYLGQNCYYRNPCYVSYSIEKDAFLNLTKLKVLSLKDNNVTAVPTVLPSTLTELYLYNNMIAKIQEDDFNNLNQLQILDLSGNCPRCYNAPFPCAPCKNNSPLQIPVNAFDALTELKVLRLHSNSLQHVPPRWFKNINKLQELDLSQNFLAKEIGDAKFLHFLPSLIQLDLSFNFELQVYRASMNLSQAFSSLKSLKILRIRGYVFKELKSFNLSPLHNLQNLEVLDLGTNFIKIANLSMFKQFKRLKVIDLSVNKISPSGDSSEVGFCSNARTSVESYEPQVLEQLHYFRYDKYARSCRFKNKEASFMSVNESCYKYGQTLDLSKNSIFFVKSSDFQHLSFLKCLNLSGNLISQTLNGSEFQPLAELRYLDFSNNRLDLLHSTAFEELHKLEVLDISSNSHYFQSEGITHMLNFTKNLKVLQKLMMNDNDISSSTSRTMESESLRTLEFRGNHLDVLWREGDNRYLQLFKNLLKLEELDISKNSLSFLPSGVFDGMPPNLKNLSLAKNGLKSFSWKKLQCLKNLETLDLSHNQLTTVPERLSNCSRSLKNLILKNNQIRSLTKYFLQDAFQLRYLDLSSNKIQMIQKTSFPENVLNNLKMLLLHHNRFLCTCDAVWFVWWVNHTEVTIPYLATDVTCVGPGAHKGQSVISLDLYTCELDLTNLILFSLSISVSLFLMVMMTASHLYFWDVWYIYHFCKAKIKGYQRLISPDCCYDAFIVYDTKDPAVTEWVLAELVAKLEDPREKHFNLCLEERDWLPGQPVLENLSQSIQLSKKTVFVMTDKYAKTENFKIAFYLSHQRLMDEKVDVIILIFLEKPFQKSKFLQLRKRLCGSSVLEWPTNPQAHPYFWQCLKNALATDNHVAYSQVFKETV
Procedure: (§1) Example 389: HEK/293 TLR7 Cell Assay Into 384 CulturePlates (Corning 3765) was placed 5000 c/w of TLR7/NFKb HEK cells in 30 uL DMEM without Phenol red (gibco #31053-028) and 10% heat inactivated fetal bovine serum, 10% penicillin-streptomycin, and 2 mM L-Glutamine. The cells were incubated for 24 h at 37° C., 10% carbon dioxide and 90% relative humidity. 3 uL of controls, standards, and compounds were dispensed into wells, incubated for 30 min then 3 uL of R848 agonist (10 uM final concentration) was added in 20 mM Hepes. After incubation for 5 hours, they were allowed to stand at room temperature for 15 min. To this was added 10 uL of Steady-Glo substrate reagent and shake assay plate for 5 min at 1500 rpm. The assay plate was allowed to sit for 30 min at room temperature and then the plate was read on EnVision.

TLR8 = target: T2, TLR8 (Homo sapiens, UniProt Q9NR97); experiment: HEK/293 TLR8 Cell Assay; format: cell-based; conditions: HEK cells, R848 agonist 30 uM final concentration, Steady-Glo readout; read-out: TLR8 potency
T2 construct: expressed in transfected cells; host or cells: HEK/293 reporter cells (NF-kB luciferase)
T2 sequence (Q9NR97 27-1041): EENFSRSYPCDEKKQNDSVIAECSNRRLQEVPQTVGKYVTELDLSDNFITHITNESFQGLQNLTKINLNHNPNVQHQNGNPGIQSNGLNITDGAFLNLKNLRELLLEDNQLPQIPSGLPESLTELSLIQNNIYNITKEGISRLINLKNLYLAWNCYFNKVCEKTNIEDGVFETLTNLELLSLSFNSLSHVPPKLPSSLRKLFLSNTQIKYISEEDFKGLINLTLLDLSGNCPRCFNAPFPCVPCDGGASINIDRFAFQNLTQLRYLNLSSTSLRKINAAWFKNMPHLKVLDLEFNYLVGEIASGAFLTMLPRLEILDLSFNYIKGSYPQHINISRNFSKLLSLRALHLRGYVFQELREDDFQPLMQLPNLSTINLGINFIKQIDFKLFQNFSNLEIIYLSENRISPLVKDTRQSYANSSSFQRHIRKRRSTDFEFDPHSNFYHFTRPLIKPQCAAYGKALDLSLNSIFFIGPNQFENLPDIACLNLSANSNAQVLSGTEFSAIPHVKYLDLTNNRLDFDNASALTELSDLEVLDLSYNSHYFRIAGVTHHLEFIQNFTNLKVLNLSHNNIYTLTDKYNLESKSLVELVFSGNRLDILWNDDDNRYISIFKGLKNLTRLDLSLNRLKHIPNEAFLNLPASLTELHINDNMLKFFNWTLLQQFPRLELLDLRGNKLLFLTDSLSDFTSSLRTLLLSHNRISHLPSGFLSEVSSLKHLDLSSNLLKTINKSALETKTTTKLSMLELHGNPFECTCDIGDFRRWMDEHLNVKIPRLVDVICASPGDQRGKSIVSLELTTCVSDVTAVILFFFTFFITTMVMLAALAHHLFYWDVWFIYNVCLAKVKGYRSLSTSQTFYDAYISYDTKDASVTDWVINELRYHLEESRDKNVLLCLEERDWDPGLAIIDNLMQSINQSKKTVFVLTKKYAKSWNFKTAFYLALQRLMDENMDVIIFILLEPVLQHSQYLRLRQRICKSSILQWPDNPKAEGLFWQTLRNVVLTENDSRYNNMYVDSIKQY
Procedure: as §1, with “Example 390:” for “Example 389:”, “HEK/293 TLR8” for “HEK/293 TLR7”, “serum, 1%” for “serum, 10%”, “agonist (30” for “agonist (10”

| SMILES | pIC50 (TLR7) | pIC50 (TLR8) |
| --- | --- | --- |
| C[C@@H]1CN(c2cnc(C#N)c3ncccc23)C[C@H](CNCC2(F)CCOCC2)O1 [Example 377, 5-((2S,6R)-2-{[(4-Fluoro-tetrahydro-pyran-4-ylmethyl)-amino]-methyl}-6-methyl-morpholin-4-yl)-[1,7]naphthyridine-8-carbonitrile] | < 6.82 | < 6.82 |
| C[C@H]1C[C@@H](NC(=O)[C@@H](N)CC(N)=O)CN(c2ccc(C(F)(F)F)c3nccnc23)C1 [Example 127, (2S)-2-amino-N-[(3R,5S)-5-methyl-1-[8-(trifluoromethyl)quinoxalin-5-yl]piperidin-3-yl]butanediamide] | 6.82 to 7.12 | > 7.12 |
| C[C@H]1C[C@@H](NC(=O)C2CCNCC2)CN(c2ccc(C(F)(F)F)c3ncccc23)C1 [Example 179, Piperidine-4-carboxylic acid [(3R,5S)-5-methyl-1-(8-trifluoromethyl-quinolin-5-yl)-piperidin-3-yl]-amide] | > 7.12 | > 7.12 |
| C[C@H]1C[C@@H](NCCCS(C)(=O)=O)CN(c2ccc(C#N)c3nccnc23)C1 [Example 21, 8-[(3R,5S)-3-[(3-methanesulfonylpropyl)amino]-5-methylpiperidin-1-yl]quinoxaline-5-carbonitrile methanesulfonamide] | > 7.12 | > 7.12 |
| Cc1c(F)cc(N2C[C@H](NC(=O)[C@@H]3CCCN3)C[C@H](C(F)(F)F)C2)c2cccnc12 [Example 115, (2S)—N-[(3R,5S)-1-(7-fluoro-8-methylquinolin-5-yl)-5-(trifluoromethyl)piperidin-3-yl]pyrrolidine-2-carboxamide] | < 6.82 | > 7.12 |
| C[C@H]1C[C@@H](NC(=O)[C@@H](N)CC(N)=O)CN(c2ccc(C(F)(F)F)c3ncccc23)C1 [Example 128, (2S)-2-amino-N-[(3R,5S)-5-methyl-1-[8-(trifluoromethyl)quinolin-5-yl]piperidin-3-yl]butanediamide] | > 7.12 | > 7.12 |
| C[C@@H]1CN(c2ccc(C#N)c3nccnc23)C[C@H](CSC[C@H](O)CO)O1 (single isomer, unassigned) [Example 229] | 6.82 to 7.12 | > 7.12 |
| N#Cc1ccc(N2C[C@@H](C(F)(F)F)O[C@@H](C(=O)NC[C@]3(F)CCNC3)C2)c2nccnc12 (single isomer, unassigned) [Example 309] | > 7.12 | > 7.12 |
| CCS(=O)(=O)NCCN[C@@H]1C[C@H](C)CN(c2ccc(C#N)c3nccnc23)C1 [Example 46, Ethane sulfonic acid {2-[(3R,5S)-1-(8-cyano-quinoxalin-5-yl)-5-methyl-piperidin-3-ylamino]-ethyl}-amide] | 6.82 to 7.12 | > 7.12 |
| C[C@@H]1CN(c2cnc(C#N)c3ncccc23)C[C@H](CNC(=O)[C@@]2(F)CCCNC2)O1 (single isomer, unassigned) [Example 338] | > 7.12 | > 7.12 |
| C[C@H]1C[C@@H](NC2CS(=O)(=O)C2)CN(c2ccc(C#N)c3nccnc23)C1 [Example 12, 8-[(3R,5S)-3-(1,1-Dioxo-1lambda6-thietan-3-ylamino)-5-methyl-piperidin-1-yl]-quinoxaline-5-carbonitrile] | < 6.82 | 6.82 to 7.12 |
| C[C@@H]1CN(c2ccc(C#N)c3nccnc23)C[C@H](C(=O)NC[C@@H](O)C(F)(F)F)O1 [Example 250, (2R,6R)-4-(8-Cyano-quinoxalin-5-yl)-6-methyl-morpholine-2-carboxylic acid ((R)-3,3,3-trifluoro-2-hydroxy-propyl)-amide] | > 7.12 | > 7.12 |
| C[C@@H]1CN(c2ccc(C#N)c3nccnc23)C[C@H](C(=O)NCC2CN(C)CCO2)O1 (stereo partly drawn) [Example 240, (2R,6R)-4-(8-Cyano-quinoxalin-5-yl)-6-methyl-morpholine-2-carboxylic acid (4-methyl-morpholin-2-ylmethyl)-amide] | > 7.12 | > 7.12 |
| N#Cc1ncc(N2C[C@@H](C(F)(F)F)O[C@@H](C(=O)NC[C@]3(F)CCNC3)C2)c2cccnc12 (single isomer, unassigned) [Example 320] | < 6.82 | < 6.82 |
| C[C@@H]1CN(c2ccc(C#N)c3nccnc23)C[C@H](C(=O)NCC2CCS(=O)(=O)C2)O1 (stereo partly drawn) [Example 257, (2R,6R)-4-(8-cyanoquinoxalin-5-yl)-N-[(1,1-dioxo-1λ^6-thiolan-3-yl)methyl]-6-methylmorpholine-2-carboxamide] | > 7.12 | > 7.12 |
| CC(C(=O)N[C@@H]1C[C@H](C)CN(c2ccc(C(F)(F)F)c3ncccc23)C1)N1CCN(C)CC1 (single isomer, unassigned) [Example 92] | > 7.12 | > 7.12 |
| C[C@H]1C[C@@H](n2ccnc2)CN(c2ccc(C(F)(F)F)c3nccnc23)C1 [Example 157, 5-[(3R,5S)-3-(1H-imidazol-1-yl)-5-methylpiperidin-1-yl]-8-(trifluoromethyl)quinoxaline] | < 6.82 | > 7.12 |
| C[C@@H]1CN(c2ccc(C#N)c3nccnc23)C[C@H](CN2CCC(O)CC2)O1 [Example 219, 8-[(2S,6R)-2-(4-Hydroxy-piperidin-1-ylmethyl)-6-methyl-morpholin-4-yl]-quinoxaline-5-carbonitrile] | 6.82 to 7.12 | < 6.82 |
| C[C@@H]1CN(c2ccc(C#N)c3nccnc23)C[C@H](CSCC(O)CO)O1 (stereo partly drawn) [Example 227, 8-[(2R,6R)-2-(2,3-Dihydroxy-propylsulfanylmethyl)-6-methyl-morpholin-4-yl]-quinoxaline-5-carbonitrile] | 6.82 to 7.12 | > 7.12 |
